The assay concerns the target rBoNT/A LC (Clostridium botulinum, UniProt P0DPI0). Type of assay: biochemical.

Chain of rBoNT/A LC (P0DPI0 3-448, added parts left off): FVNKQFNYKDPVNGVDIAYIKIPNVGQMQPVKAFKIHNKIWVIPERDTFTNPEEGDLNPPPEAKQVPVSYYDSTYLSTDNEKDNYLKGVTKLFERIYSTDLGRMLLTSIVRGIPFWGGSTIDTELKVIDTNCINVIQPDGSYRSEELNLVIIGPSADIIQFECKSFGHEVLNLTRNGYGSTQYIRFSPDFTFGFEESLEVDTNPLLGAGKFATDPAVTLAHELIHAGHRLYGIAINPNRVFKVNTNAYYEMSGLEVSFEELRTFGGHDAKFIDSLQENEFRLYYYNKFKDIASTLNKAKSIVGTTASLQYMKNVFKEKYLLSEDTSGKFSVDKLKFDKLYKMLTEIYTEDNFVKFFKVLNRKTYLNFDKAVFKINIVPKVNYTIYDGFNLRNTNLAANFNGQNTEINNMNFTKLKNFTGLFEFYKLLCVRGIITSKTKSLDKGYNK

`[Ca+2].[Cl-].[Cl-]` [CaCl2]: the “% Activity” value was 75%.

For `O=S(=O)([O-])[O-].[Cu+2]` [CuSO4], the “% Activity” value is 95%.

In the case of `O[C@H](CS)[C@@H](O)CS` [Dithioerythreitol], the “% Activity” value is on record as 60% and the “effect on activity of the rBoNT/A LC” value is on record as “inhibited the activity to various extents”.

`O[C@H](CS)[C@H](O)CS` [Dithiothreitol]: the “% Activity” value is 45% and the “effect on activity of the rBoNT/A LC” value is “significantly inhibited”. In the same order, the values of `O=C(O)CN(CCN(CC(=O)O)CC(=O)O)CC(=O)O` [EDTA] are 00% and “completely inhibited”. With `[Cl][Fe][Cl]` [FeCl2], the “% Activity” value is 35%. Regarding `N[C@@H](CCC(=O)N[C@@H](CS)C(=O)NCC(=O)O)C(=O)O` [Glutathione, reduced], the “% Activity” value came to 75% and the “effect on activity of the rBoNT/A LC” value is “inhibited the activity to various extents”.

For the molecule `NC(=O)CI` [Iodoacetamide], the “% Activity” value amounted to 80%. As for `N[C@@H](CS)C(=O)O` [L-Cysteine], the “% Activity” value was 20% and the “effect on activity of the rBoNT/A LC” value is reported as “inhibited the activity to various extents”.

Consider `[Cl][Hg][Cl]` [Mercuric chloride], for which the “% Activity” value was 00% and the “effect on activity of the rBoNT/A LC” value is reported as “completely abolished”. Turning to `[Cl-].[Cl-].[Mg+2]` [MgCl2], the “% Activity” value is 90%. Regarding `[Cl][Mn][Cl]` [MnCl2], the “% Activity” value was 40% and the “effect on activity of the rBoNT/A LC” value is reported as “inhibited the LC reaction to various extents”. The corresponding values for `O=S(=O)([O-])[O-].[Ni+2]` [NiSO4] are 55% and “inhibited the LC reaction to various extents”. In the case of `N[C@@H](CCC(=O)N[C@@H](CSN=O)C(=O)NCC(=O)O)C(=O)O` [S-Nitrosoglutathione], the “% Activity” value was 55%. Regarding `[Cl-].[Cl-].[Zn+2]` [ZnCl2], the stimulation of activity is reported as 5%-10%. Turning to `O=C(O)c1cc[c]([Hg][Cl])cc1` [p-C1-Mercuribenzoate], the “% Activity” value was determined as 00% and the “effect on activity of the rBoNT/A LC” value is “completely abolished”. With `OCCS` [β-Mercaptoethanol], the “% Activity” value is recorded as 120% and the “effect on activity of the rBoNT/A LC” value is “stimulated the activity”. On to CoCl2, for which the “% Activity” value came out at 90%.

Values taken from patent US8153397B2 (priority 1993, dated 2012).
